Key:
Assay in all cases: radiometric filter-binding kinase assay
[1] = biological target: STK11 CAB39 STRADA (human) (UniProt Q9Y376+Q7RTN6+Q15831)
EEF2K (human) = EEF2K (human) (UniProt O00418)
NTRK1 (human) = NTRK1 (human) (UniProt P04629)
EPHA2 (human) = EPHA2 (human) (UniProt P29317)
NUAK1 (human) = NUAK1 (human) (UniProt O60285)
MAP3K11 (human) = MAP3K11 (human) (UniProt Q16584)
BRSK1 (human) = BRSK1 (human) (UniProt Q8TDC3)
IRAK4 (human) = IRAK4 (human) (UniProt Q9NWZ3)
MAP2K2 (human) = MAP2K2 (human) (UniProt P36507)
DYRK2 (human) = DYRK2 (human) (UniProt Q92630)
MAPK12 (human) = MAPK12 (human) (UniProt P53778)
AURKA (human) = AURKA (human) (UniProt O14965)
ERBB4 (human) = ERBB4 (human) (UniProt Q15303); conditions: compound 10.0 µM
HIPK3 (human) = HIPK3 (human) (UniProt Q9H422)
EPHB3 (human) = EPHB3 (human) (UniProt P54753)
MAP2K6 (human) = MAP2K6 (human) (UniProt P52564)
PKN2 (human) = PKN2 (human) (UniProt Q16513)
MARK4 (human) = MARK4 (human) (UniProt Q96L34); conditions: compound 10.0 µM
MAP3K1 (human) = MAP3K1 (human) (UniProt Q13233)
MELK (human) = MELK (human) (UniProt Q14680)
PIM1 (human) = PIM1 (human) (UniProt P11309)
[2] = system: AKT1 (human), P31749 [S473D]
MAPKAPK2 (human) = MAPKAPK2 (human) (UniProt P49137)
PAK4 (human) = PAK4 (human) (UniProt O96013)
MAP3K9 (human) = MAP3K9 (human) (UniProt P80192)
INSR (human) = INSR (human) (UniProt P06213)
PRKCZ (human) = PRKCZ (human) (UniProt Q05513)
PRKCA (human) = PRKCA (human) (UniProt P17252); conditions: compound 10.0 µM
MARK2 (human) = MARK2 (human) (UniProt Q7KZI7)
MARK1 (human) = MARK1 (human) (UniProt Q9P0L2)
MST4 (human) = MST4 (human) (UniProt Q9P289)
MAPK9 (human) = MAPK9 (human) (UniProt P45984)
PAK6 (human) = PAK6 (human) (UniProt Q9NQU5)
GSK3B (human) = GSK3B (human) (UniProt P49841)
MAP3K5 (human) = MAP3K5 (human) (UniProt Q99683); conditions: compound 10.0 µM

MAPK9 (human), sequence (P45984 whole entry, looked up): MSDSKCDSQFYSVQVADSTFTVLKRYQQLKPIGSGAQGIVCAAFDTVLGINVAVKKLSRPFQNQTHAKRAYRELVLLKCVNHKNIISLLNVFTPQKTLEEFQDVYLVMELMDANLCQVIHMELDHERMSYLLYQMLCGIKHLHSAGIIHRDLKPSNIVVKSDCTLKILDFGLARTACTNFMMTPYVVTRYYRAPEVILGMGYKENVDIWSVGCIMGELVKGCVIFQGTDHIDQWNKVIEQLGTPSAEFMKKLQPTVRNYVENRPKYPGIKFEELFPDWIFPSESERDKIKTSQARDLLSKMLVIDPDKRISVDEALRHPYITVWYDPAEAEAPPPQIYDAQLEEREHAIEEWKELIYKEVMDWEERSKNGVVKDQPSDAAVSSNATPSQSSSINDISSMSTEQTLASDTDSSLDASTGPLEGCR
GSK3B (human), sequence (P49841 whole entry, looked up): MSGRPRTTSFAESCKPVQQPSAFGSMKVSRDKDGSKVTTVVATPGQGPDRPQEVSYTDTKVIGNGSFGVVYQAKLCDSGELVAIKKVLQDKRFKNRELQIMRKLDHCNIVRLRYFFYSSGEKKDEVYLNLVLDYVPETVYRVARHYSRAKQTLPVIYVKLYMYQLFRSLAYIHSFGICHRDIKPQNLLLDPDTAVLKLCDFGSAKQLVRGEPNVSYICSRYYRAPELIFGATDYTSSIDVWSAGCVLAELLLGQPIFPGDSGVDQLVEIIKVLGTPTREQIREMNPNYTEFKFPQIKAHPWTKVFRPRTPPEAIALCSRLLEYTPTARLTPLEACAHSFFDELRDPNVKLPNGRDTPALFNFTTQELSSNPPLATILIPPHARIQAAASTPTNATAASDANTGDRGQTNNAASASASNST
PRKCZ (human), sequence (Q05513 whole entry, looked up): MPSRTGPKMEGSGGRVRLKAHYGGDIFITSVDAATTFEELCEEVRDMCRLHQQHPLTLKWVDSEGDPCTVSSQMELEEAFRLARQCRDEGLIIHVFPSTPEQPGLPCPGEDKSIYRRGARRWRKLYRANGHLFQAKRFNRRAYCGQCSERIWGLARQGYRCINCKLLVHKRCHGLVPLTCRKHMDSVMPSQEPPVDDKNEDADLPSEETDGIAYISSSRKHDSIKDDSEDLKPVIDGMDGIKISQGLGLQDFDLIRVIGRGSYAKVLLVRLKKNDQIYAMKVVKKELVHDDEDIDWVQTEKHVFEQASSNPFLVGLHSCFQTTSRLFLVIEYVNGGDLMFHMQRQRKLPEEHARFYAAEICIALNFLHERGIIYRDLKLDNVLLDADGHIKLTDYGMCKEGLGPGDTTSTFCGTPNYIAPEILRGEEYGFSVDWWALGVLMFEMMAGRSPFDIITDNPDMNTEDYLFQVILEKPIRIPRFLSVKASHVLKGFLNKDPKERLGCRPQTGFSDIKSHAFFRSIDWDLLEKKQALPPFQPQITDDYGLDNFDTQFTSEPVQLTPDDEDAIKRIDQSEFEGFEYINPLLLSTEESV
BRSK1 (human), sequence (Q8TDC3 whole entry, looked up): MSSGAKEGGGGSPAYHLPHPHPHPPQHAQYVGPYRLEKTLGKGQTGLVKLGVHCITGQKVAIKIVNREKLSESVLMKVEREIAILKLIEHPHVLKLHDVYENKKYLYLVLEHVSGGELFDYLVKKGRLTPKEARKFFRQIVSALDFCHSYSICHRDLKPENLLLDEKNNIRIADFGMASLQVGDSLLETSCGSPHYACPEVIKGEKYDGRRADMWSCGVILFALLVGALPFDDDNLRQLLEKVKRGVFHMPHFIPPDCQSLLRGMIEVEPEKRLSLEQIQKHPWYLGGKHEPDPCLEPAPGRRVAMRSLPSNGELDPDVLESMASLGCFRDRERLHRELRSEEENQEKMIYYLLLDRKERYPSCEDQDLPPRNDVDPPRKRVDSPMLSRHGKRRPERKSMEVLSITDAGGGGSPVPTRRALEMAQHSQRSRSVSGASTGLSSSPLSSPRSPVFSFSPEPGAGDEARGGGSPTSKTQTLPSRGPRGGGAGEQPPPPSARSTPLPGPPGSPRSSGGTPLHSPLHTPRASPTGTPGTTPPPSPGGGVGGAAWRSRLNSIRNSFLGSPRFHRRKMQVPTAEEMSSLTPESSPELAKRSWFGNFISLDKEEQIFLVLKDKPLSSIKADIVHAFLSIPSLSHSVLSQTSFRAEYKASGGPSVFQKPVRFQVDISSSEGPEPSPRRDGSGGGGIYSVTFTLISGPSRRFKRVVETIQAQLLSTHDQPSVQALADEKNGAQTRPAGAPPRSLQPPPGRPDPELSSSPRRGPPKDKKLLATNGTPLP
HIPK3 (human), sequence (Q9H422 whole entry, looked up): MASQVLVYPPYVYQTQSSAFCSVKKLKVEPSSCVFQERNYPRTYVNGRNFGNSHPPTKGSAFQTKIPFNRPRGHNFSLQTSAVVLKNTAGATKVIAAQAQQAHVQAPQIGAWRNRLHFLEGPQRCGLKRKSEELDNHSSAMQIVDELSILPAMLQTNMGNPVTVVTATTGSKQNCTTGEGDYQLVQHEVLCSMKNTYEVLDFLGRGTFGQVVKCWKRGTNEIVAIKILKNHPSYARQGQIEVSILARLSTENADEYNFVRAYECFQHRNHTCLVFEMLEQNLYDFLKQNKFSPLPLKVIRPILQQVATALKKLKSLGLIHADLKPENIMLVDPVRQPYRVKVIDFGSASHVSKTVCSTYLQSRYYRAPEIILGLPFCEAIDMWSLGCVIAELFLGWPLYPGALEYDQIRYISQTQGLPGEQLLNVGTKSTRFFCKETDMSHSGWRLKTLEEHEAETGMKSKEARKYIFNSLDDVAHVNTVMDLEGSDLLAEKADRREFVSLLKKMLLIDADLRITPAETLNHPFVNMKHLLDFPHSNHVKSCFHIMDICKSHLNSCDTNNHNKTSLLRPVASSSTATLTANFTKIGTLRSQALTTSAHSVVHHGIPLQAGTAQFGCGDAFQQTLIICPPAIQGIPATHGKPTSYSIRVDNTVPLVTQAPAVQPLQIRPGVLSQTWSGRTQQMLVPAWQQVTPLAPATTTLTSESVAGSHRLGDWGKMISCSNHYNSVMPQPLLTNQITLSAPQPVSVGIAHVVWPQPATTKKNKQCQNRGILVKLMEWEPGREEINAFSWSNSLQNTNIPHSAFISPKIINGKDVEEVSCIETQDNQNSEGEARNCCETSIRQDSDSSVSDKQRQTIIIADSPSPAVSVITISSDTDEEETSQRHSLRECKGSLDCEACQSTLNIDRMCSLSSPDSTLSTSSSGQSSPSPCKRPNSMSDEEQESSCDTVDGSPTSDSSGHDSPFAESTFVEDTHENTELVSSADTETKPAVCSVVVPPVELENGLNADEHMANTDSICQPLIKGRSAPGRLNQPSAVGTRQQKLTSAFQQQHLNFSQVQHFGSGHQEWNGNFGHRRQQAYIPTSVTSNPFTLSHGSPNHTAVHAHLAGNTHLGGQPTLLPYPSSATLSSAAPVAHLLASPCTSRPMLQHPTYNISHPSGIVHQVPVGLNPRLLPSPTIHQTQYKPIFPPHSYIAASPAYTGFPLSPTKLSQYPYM
PAK4 (human), sequence (O96013 whole entry, looked up): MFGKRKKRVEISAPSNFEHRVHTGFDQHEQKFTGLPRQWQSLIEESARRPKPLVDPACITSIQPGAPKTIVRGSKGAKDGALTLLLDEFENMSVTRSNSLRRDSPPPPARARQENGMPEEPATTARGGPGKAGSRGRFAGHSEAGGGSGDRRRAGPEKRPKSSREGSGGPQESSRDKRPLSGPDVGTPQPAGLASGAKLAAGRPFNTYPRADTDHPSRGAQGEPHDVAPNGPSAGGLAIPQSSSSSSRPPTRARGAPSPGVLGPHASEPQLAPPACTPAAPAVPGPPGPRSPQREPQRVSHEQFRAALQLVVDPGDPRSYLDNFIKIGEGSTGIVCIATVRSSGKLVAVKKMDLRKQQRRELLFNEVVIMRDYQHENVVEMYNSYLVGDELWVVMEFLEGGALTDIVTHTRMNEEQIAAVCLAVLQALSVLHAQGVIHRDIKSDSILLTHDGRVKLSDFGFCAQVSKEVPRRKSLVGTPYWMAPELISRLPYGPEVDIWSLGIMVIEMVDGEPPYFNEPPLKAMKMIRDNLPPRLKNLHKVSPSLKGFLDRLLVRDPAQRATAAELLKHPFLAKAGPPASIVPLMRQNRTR
EEF2K (human), sequence (O00418 whole entry, looked up): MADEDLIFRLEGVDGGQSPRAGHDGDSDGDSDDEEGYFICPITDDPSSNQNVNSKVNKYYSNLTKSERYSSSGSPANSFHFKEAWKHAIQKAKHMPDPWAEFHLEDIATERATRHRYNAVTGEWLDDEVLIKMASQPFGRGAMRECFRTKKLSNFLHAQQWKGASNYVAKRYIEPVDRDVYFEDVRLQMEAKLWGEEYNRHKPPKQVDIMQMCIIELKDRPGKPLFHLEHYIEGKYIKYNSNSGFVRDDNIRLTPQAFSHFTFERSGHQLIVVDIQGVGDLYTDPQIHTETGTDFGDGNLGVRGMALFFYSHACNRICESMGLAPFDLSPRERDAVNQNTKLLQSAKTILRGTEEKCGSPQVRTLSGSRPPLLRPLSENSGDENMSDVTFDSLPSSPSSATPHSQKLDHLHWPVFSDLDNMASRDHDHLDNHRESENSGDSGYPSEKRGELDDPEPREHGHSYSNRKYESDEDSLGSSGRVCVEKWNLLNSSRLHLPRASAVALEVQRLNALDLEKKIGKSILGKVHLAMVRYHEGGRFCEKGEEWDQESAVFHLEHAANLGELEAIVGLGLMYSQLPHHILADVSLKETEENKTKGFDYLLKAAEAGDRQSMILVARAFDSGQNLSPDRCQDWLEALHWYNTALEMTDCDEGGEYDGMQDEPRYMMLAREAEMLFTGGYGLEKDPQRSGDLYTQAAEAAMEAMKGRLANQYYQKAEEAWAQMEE

Compound Cc1ccc(=O)n(-c2ccccc2)c1 has a residual activity ([1]; compound 1.0 µM) of 103%, a residual activity ([1]; compound 10.0 µM) of 95% and a residual activity (EEF2K (human); compound 1.0 µM) of 83%. The residual activity (EEF2K (human); compound 10.0 µM) was 87%, the residual activity (NTRK1 (human); compound 1.0 µM) was 103% and the residual activity (NTRK1 (human); compound 10.0 µM) was 112%. For the same compound, the residual activity (EPHA2 (human); compound 1.0 µM) was 113%, the residual activity (EPHA2 (human); compound 10.0 µM) was 111% and the residual activity (NUAK1 (human); compound 1.0 µM) was 115%. It also gave a residual activity (NUAK1 (human); compound 10.0 µM) of 100%, a residual activity (MAP3K11 (human); compound 1.0 µM) of 108% and a residual activity (MAP3K11 (human); compound 10.0 µM) of 98%. It also gave a residual activity (BRSK1 (human); compound 1.0 µM) of 95%, a residual activity (BRSK1 (human); compound 10.0 µM) of 93% and a residual activity (IRAK4 (human); compound 1.0 µM) of 83%. It also gave a residual activity (IRAK4 (human); compound 10.0 µM) of 95%, a residual activity (MAP2K2 (human); compound 1.0 µM) of 58% and a residual activity (MAP2K2 (human); compound 10.0 µM) of 35%. For the same compound, the residual activity (DYRK2 (human); compound 1.0 µM) was 107%, the residual activity (DYRK2 (human); compound 10.0 µM) was 98% and the residual activity (MAPK12 (human); compound 1.0 µM) was 109%. The residual activity (MAPK12 (human); compound 10.0 µM) was 96%, the residual activity (AURKA (human); compound 1.0 µM) was 106% and the residual activity (AURKA (human); compound 10.0 µM) was 107%. It also gave a residual activity (ERBB4 (human)) of 106%, a residual activity (HIPK3 (human); compound 1.0 µM) of 100% and a residual activity (HIPK3 (human); compound 10.0 µM) of 96%. For the same compound, the residual activity (EPHB3 (human); compound 1.0 µM) was 96%, the residual activity (EPHB3 (human); compound 10.0 µM) was 112% and the residual activity (MAP2K6 (human); compound 1.0 µM) was 106%. The residual activity (MAP2K6 (human); compound 10.0 µM) was 88%, the residual activity (PKN2 (human); compound 1.0 µM) was 121% and the residual activity (PKN2 (human); compound 10.0 µM) was 91%. The residual activity (MARK4 (human)) was 74%, the residual activity (MAP3K1 (human); compound 1.0 µM) was 106% and the residual activity (MAP3K1 (human); compound 10.0 µM) was 103%. For the same compound, the residual activity (MELK (human); compound 1.0 µM) was 94%, the residual activity (MELK (human); compound 10.0 µM) was 98% and the residual activity (PIM1 (human); compound 1.0 µM) was 105%. The residual activity (PIM1 (human); compound 10.0 µM) was 106%, the residual activity ([2]; compound 1.0 µM) was 108% and the residual activity ([2]; compound 10.0 µM) was 102%. The residual activity (MAPKAPK2 (human); compound 1.0 µM) was 108%, the residual activity (MAPKAPK2 (human); compound 10.0 µM) was 93% and the residual activity (PAK4 (human); compound 1.0 µM) was 101%. The residual activity (PAK4 (human); compound 10.0 µM) was 89%, the residual activity (MAP3K9 (human); compound 1.0 µM) was 95% and the residual activity (MAP3K9 (human); compound 10.0 µM) was 89%. For the same compound, the residual activity (INSR (human); compound 1.0 µM) was 110%, the residual activity (INSR (human); compound 10.0 µM) was 103% and the residual activity (PRKCZ (human); compound 1.0 µM) was 109%. The residual activity (PRKCZ (human); compound 10.0 µM) was 97%, the residual activity (PRKCA (human)) was 118% and the residual activity (MARK2 (human); compound 1.0 µM) was 104%. It also gave a residual activity (MARK2 (human); compound 10.0 µM) of 102%, a residual activity (MARK1 (human); compound 1.0 µM) of 99% and a residual activity (MARK1 (human); compound 10.0 µM) of 98%. It also gave a residual activity (MST4 (human); compound 1.0 µM) of 105%, a residual activity (MST4 (human); compound 10.0 µM) of 102% and a residual activity (MAPK9 (human); compound 1.0 µM) of 85%. It also gave a residual activity (MAPK9 (human); compound 10.0 µM) of 86%, a residual activity (PAK6 (human); compound 1.0 µM) of 106% and a residual activity (PAK6 (human); compound 10.0 µM) of 96%. For the same compound, the residual activity (GSK3B (human); compound 1.0 µM) was 102%, the residual activity (GSK3B (human); compound 10.0 µM) was 99% and the residual activity (MAP3K5 (human)) was 99%.

Source: the kinase profiling compilation of Christmann-Franck et al. (2016)
